Series [1] relates to nidation (implantation sites). Nature of the series: Nidation inhibition in rats (anti-nidation activity). It is filed as in vivo, rat (Sprague-Dowley strain). Conditions: Rattus norvegicus, methane-sulphonic salt, given on 3rd day, approximate (.congruent.). The protocol:
Adult female rats, of the Sprague-Dowley strain, in proestrus were mated with fertile males and their vaginal smears were examined the next morning.
The presence of spermatozoa was considered evidence of impregnation and onset of pregnancy (day 1).
The compounds were administered orally or intraperitoneally as methane-sulphonic salts to groups of six to eight rats on the 3rd day.
On the 14th day the animals were sacrificed and the uterus was examined for the presence of implantation sites.
The absence of implantation sites was the criterion of activity.
Several doses were tested for the ED50 evaluation.

The subject of series [2] is lactation. Nature of the series: Lactation inhibition in rats (anti-lactation activity). It is filed as in vivo. Conditions: Rattus norvegicus, po, methane-sulfonic salt, 6th and 7th days, approximate (.congruent.); read-out: ED50, lactation inhibition (50% reduction of gain in weight of the litters). The protocol:
Adult pregnant female rats were individually caged about 6 days before parturition. The day after parturition (day 1), the number of pups was adjusted to eight. The gain in weight of the litters was measured daily.
The test compounds as methane-sulfonic salts were administered orally to groups of eight mother rats on the 6th and 7th days immediately after the weighing of the litters. The control mothers were treated with the vehicle alone.
The percentage of lactation inhibition was calculated from the mean gain in weight of the litters on the 7th and 8th days in comparison with the results for the 5th and 6th days.
No lactation inhibition was present on the 7th and 8th days in the vehicle-treated (control) group.
The doses capable of reducing to 50% the gain in weight of the litters (ED50) are reported below in Table II.

The subject of the next series is emesis. Briefly: Emetic activity in dogs. Conditions: dogs, both routes of administration (Table III), in words. Type of series: in vivo, dog (male beagle). The protocol:
(§1) The emetic activity of the compounds was examined by intravenous and oral administration to male beagle dogs weighing 15-20 kg. The compounds were administered as the methane-sulphonic salts. […] Five to six animals per dose were employed for the ED50 evaluation.

The nature of another series: Emetic activity in dogs. Type of series: in vivo, dog (male beagle). The note with it: dog, in vivo, methane-sulphonic salt, approximate (.congruent.), read-out: ED50, emetic activity; for TD50 at 2 h: iv, observed 2 hours; for TD50 at 6 h: po, observed 6 hours. The protocol:
as §1

The test system of series [3] is prolactin (PRL) release. Conditions: cited from earlier work.
Series [4] deals with puerperal lactation. Conditions: comparison drug, no own test described; cited from earlier work.
For series [5], the system named is lactation. The note with it: in rats, literature (Fluckiger and Wagner 1968), in words; cited from earlier work.
Another series relates to prolactin. The note with it: literature (Brooks and Welsch 1974), in words; cited from earlier work.
The test system of series [6] is nidation (implantation sites). The note with it: in rats, literature (Fluckiger and Wagner 1968), in words; cited from earlier work.
The subject of series [7] is puerperal lactation. Briefly: Inhibition of puerperal lactation in women (clinical evaluation). It is filed as in vivo, human (puerperal women). The protocol: The invention concerns a novel method of inhibiting lactation in puerperal women by administering metergoline.
Metergoline was administered at a dose of 8 mg/day (4 mg at 0.800 and 4 mg at 2000) to these women: 10 women were treated with a placebo.

In series [8] the test system is prolactin (PRL) release. The note with it: cited from earlier work. This is another data set of the same source.

SMILES strings stand for the structures. Bounds are passed on as bounds.

The values below come from patent publication US4151283A, “6-Methyl-and 1,6-dimethyl-8β-carbobenzyloxy-aminomethyl-10α-ergoline as inhibitors of prolactin secretion” (Societa' Farmaceutici Italia S.p.A., priority 1977, dated 1979).

By ED50 is commonly meant the midpoint of the dose-response relation.

`CN1C[C@H](CNC(=O)OCc2ccccc2)C[C@@H]2c3cccc4[nH]cc(c34)C[C@H]21` [1-Demethyl-metergoline, 6-Methyl-8β-carbobenzyloxy-aminomethyl-10α-ergoline]: the ED50 in series [1] (po) lay within 4 to 8 mg/kg. In the series with lactation [2], the ED50 lay within 4 to 8 mg/kg. The “emetic tolerability versus reference standard III” value in the series with emesis is listed as “clearly better tolerated than the reference standard III”. Also, in “Emetic activity in dogs”, the TD50 at 2 h is 0.05 to 0.1 mg/kg and the TD50 at 6 h is 0.2 to 0.4 mg/kg.

`N[C@@H](Cc1c[nH]c2ccc(O)cc12)C(=O)O` [5 hydroxytryptophan]: the “effect on PRL release in man” value with prolactin (PRL) release [3] is recorded as “stimulates PRL release”.

As to `CC(C)C[C@H]1C(=O)N2CCC[C@H]2[C@]2(O)O[C@](NC(=O)[C@@H]3C=C4c5cccc6[nH]c(Br)c(c56)C[C@H]4N(C)C3)(C(C)C)C(=O)N12` [Bromocriptine, 2-Br-α-ergocriptine, reference compound], the 50% effective dose (ED50) lay in the range of 16 to 32 mg/kg in [1] (ip), 8 to 16 mg/kg in [1] (po) and 8 to 16 mg/kg in the series on lactation [2]. Also, the treatment period required with puerperal lactation [4] is listed as 14 days. Also, the anti-lactation activity result with lactation [5] is “well known both for its anti-nidation and anti-lactation activity in rats”. Also, the TD50 at 2 h in “Emetic activity in dogs” was roughly 0.007 mg/kg. The TD50 at 6 h in “Emetic activity in dogs” is less than 0.03 mg/kg. Besides, the anti-prolactin activity entry in the series with prolactin is given as “anti-prolactin activity”. Further, the anti-nidation activity entry in series [6] was “well known both for its anti-nidation and anti-lactation activity in rats”.

As for `CN1C[C@H](CNC(=O)OCc2ccccc2)C[C@@H]2c3cccc4c3c(cn4C)C[C@H]21` [Metergoline, 1,6-Dimethyl-8β-carbobenzyloxy-aminomethyl-10α-ergoline], the ED50 was 16 to 32 mg/kg in series [1] (ip), roughly 25 mg/kg in [1] (po) and 12.5 to 25 mg/kg in the series with lactation [2]. The “women in whom five days of treatment prevented or suppressed lactation” value with puerperal lactation [7] (8 mg/day (4 mg twice), 5 days) turned out to be 69 women. Also, in the series on puerperal lactation [7] (8 mg/day, second course of 5 additional days), the “remaining women in whom a second course definitely inhibited every sign of mammary activity” value is 9 women. Also, the “cases in which the necessary treatment period is 5 days” value with puerperal lactation [7] (5 days of treatment) was determined as 88.5%. Besides, the treatment period necessary in the series with puerperal lactation [7] (in 88.5% of cases) was found to be 5 days. For the same molecule, the tolerability / side-effects result in the series with puerperal lactation [7] (women, 8 mg/day, in words) is “perfectly tolerated and devoid of any side-effect”. Also, in the series with emesis, the “emetic tolerability versus reference standard III” value is listed as “clearly better tolerated than the reference standard III”. The TD50 at 2 h in “Emetic activity in dogs” was greater than 8 mg/kg. In “Emetic activity in dogs”, the TD50 at 6 h was 4 to 8 mg/kg.

On to `CC[C@@H](CO)NC(=O)[C@@H]1C=C2c3cccc4c3c(cn4C)C[C@H]2N(C)C1` [methysergide], for which the “effect on 5-hydroxytryptophan-stimulated PRL release” value in the series on prolactin (PRL) release [3] (in man) was “partially inhibited”.

As for `NCCc1c[nH]c2ccc(O)cc12` [serotonin (5HT), 5-hydroxytryptamine], in the series with prolactin (PRL) release [8], the “effect on PRL release in animals” value is “stimulates prolactin (PRL) release”.
